# Measured values from PubChem BioAssay AID1919009 (Molecular Pharmacology Branch, DTP, NCI, 2023).
# Test system: K24384-001-R-PDC complex spheroid growth
# Test: Anticancer human tumor K24384-001-R-PDC patient-derived pancreatic adenocarcinoma cell line growth inhibition [AhR]
# Conditions: for IC50: curve of first compound; for viability, T/C: stronger effect = lower value
# Text: Multicellular complex tumor spheroid response to aryl hydrocarbon receptor antagonists in combination with a variety of drugs and investigational agents in selected tumor cell lines
# The current study was undertaken to assess response to aryl hydrocarbon receptor antagonists in combination with standard-of-care drugs and investigational agents in solid tumor complex spheroid models. Complex spheroids include a stromal component modeled by human endothelial cells (HUVEC) and fibroblasts modeled by human mesenchymal stem cells (MSCs). The concentration ranges selected for each drug and investigational agent were based upon clinically achievable concentrations if the clinical Cmax of the agent was known.
# Compounds. The drugs and investigational agents: BAY 2416964 (NSC825713), GNF351 (NSC835774), CH-223191 (NSC835775), CPI-455 (NSC825282), aza-TdCyd (NSC777586), decitabine (NSC127716), belinostat (NSC758774), entinostat (NSC756642), pevonedistat (NSC761192), tazemetostat (NSC777109), talazoparib (NSC765396), olaparib (NSC753686), selinexor (NSC780203), nedisertib (M3814, NSC802822), bortezomib (NSC756655), venetoclax (NSC766270), doxorubicin (NSC123127), elimusertib (BAY189344, NSC800525), ceralasertib (AZD6738, NSC777638), TAK-243 (NSC785004), alisertib (NSC759677), etoposide (NSC141540), topotecan (NSC609699), eribulin (NSC707389), gemcitabine (NSC613327), carboplatin (NSC241240), cisplatin (NSC119875), and SN-38 (NSC673596) were obtained from the National Cancer Institute (NCI) Developmental Therapeutics Program Chemical Repository (32). The FDA-approved anticancer drug set is available from the Developmental Therapeutics Program at https://dtp.cancer.gov/organization/dscb/obtaining/available plates.htm. […] The stock solutions were prepared in dimethyl sulfoxide (DMSO, Sigma-Aldrich, St. Louis, MO, cat. D2650), except for the platinum compounds which were prepared in saline (Quality Biological, Gaithersburg, MD, cat. 114-055-101), at 800-fold the tested concentration and stored at -70 degrees C prior to their use. All drugs and investigational agents were tested over a range starting from a high concentration at or near the clinical Cmax and decreasing in half-log increments. If the clinical Cmax for an agent had not been determined, the highest concentration tested was 10 microM (Table 1).
# Cell Culture. All cells were maintained in an incubator at 37 degrees C and 5% CO2 with 95% humidity. The PDC lines were cultured according to standard operating procedures established by the NCI PDMR (https://pdmr.cancer.gov). Briefly, all PDCs were thawed and cultured in Matrigel-coated flasks prepared with a working solution of 1X Ham's F-12 nutrient mix, without supplementation (Invitrogen, Waltham, MA, cat. 11765054), 100 U/mL penicillin-streptomycin (Invitrogen, cat. 15140122), and 2.5% Matrigel (Corning Inc., Corning, NY, cat. 354248) for the first three passages. All PDCs were cultured in complete DMEM/F-12 media containing advanced DMEM/F-12 (Invitrogen, cat. 12634028), 4.9% defined fetal bovine serum, heat inactivated (HyClone Laboratories Inc., Logan, UT, cat. SH30070.03HI), 389 ng/mL hydrocortisone (Sigma-Aldrich, cat. H4001), 9.7 ng/mL human EGF recombinant protein (Invitrogen, cat. PHG0313), 23.4 microg/mL adenine (Sigma-Aldrich, cat. A2786), 97.3 U/mL penicillin-streptomycin (Invitrogen, cat. 15140122), 1.9 mM L-glutamine (Invitrogen, cat. 25030081), and 9.7 microM Y-27632 dihydrochloride (Tocris Bioscience, Bristol, United Kingdom, cat. 1254). The PDCs were cultured in complete DMEM/F12 media without 10 microM Y-27632 dihydrochloride for at least two passages prior to the screen. The established cell lines NCI-H1341 and […] were cultured in DMEM/F-12, HEPES (Invitrogen, cat. 11330032), 5% defined fetal bovine serum (HyClone Laboratories Inc., cat. SH30070.03), ITS premix universal culture supplement [insulin (5 microg/mL), transferrin (5 microg/mL), and selenious acid (5 ng/mL)] […]
# [1] = second compound 0.1 µM, first compound 0.00316 µM
# [2] = second compound 0.1 µM, first compound 0.01 µM
# [3] = second compound 0.1 µM, first compound 0.0316 µM
# [4] = second compound 0.1 µM, first compound 0.1 µM
# [5] = second compound 0.316 µM, first compound 0.00316 µM
# [6] = second compound 0.316 µM, first compound 0.01 µM
# [7] = second compound 0.316 µM, first compound 0.0316 µM
# [8] = second compound 0.316 µM, first compound 0.1 µM
# [9] = second compound 1 µM, first compound 0.00316 µM
# [10] = second compound 1 µM, first compound 0.01 µM
# [11] = second compound 1 µM, first compound 0.0316 µM
# [12] = second compound 1 µM, first compound 0.1 µM
# [13] = second compound 3.16 µM, first compound 0.00316 µM
# [14] = second compound 3.16 µM, first compound 0.01 µM
# [15] = second compound 3.16 µM, first compound 0.0316 µM
# [16] = second compound 3.16 µM, first compound 0.1 µM
# [17] = second compound 10 µM, first compound 0.00316 µM
# [18] = second compound 10 µM, first compound 0.01 µM
# [19] = second compound 10 µM, first compound 0.0316 µM
# [20] = second compound 10 µM, first compound 0.1 µM
# [21] = second compound 0.1 µM, first compound 0.316 µM
# [22] = second compound 0.1 µM, first compound 1 µM
# [23] = second compound 0.1 µM, first compound 3.16 µM
# [24] = second compound 0.1 µM, first compound 10 µM
# [25] = second compound 0.316 µM, first compound 0.316 µM
# [26] = second compound 0.316 µM, first compound 1 µM
# [27] = second compound 0.316 µM, first compound 3.16 µM
# [28] = second compound 0.316 µM, first compound 10 µM
# [29] = second compound 1 µM, first compound 0.316 µM
# [30] = second compound 1 µM, first compound 1 µM
# [31] = second compound 1 µM, first compound 3.16 µM
# [32] = second compound 1 µM, first compound 10 µM
# [33] = second compound 3.16 µM, first compound 0.316 µM
# [34] = second compound 3.16 µM, first compound 1 µM
# [35] = second compound 3.16 µM, first compound 3.16 µM
# [36] = second compound 3.16 µM, first compound 10 µM
# [37] = second compound 10 µM, first compound 0.316 µM
# [38] = second compound 10 µM, first compound 1 µM
# [39] = second compound 10 µM, first compound 3.16 µM
# [40] = second compound 10 µM, first compound 10 µM
# 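For viability, T/C in this document: percent of DMSO vehicle-treated spheroid viability set as 100%.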
SMILES,IC50 (second compound 0.1 µM) [nM],IC50 (second compound 0.316 µM) [nM],IC50 (second compound 1 µM) [nM],IC50 (second compound 3.16 µM) [nM],IC50 (second compound 10 µM) [nM],"viability, T/C [3] [%]","viability, T/C [4] [%]","viability, T/C [7] [%]","viability, T/C [8] [%]","viability, T/C [11] [%]","viability, T/C [12] [%]","viability, T/C [15] [%]","viability, T/C [16] [%]","viability, T/C [19] [%]","viability, T/C [20] [%]","viability, T/C [21] [%]","viability, T/C [22] [%]","viability, T/C [25] [%]","viability, T/C [26] [%]","viability, T/C [29] [%]",other results
CC[C@@]1(O)C(=O)OCc2c1cc1n(c2=O)Cc2cc3c(CN(C)C)c(O)ccc3nc2-1 + CC(CO)NC(=O)c1cc(-c2ccc(Cl)cc2)nn(-c2cnn(C)c2)c1=O,76.3,47.9,31.7,42,> 100,64,45.7,54.7,42.2,57.3,39.8,53.5,39.1,52,49.8,,,,,,"viability, T/C (second compound 0.1 µM, first compound 0.000316 µM): 103%; viability, T/C (second compound 0.1 µM, first compound 0.001 µM): 101%; viability, T/C [1]: 100%; viability, T/C [2]: 87.7%; viability, T/C (second compound 0.316 µM, first compound 0.000316 µM): 93.4%; viability, T/C (second compound 0.316 µM, first compound 0.001 µM): 111%; viability, T/C [5]: 99%; viability, T/C [6]: 84.2%; viability, T/C (second compound 1 µM, first compound 0.000316 µM): 94.2%; viability, T/C (second compound 1 µM, first compound 0.001 µM): 120%; viability, T/C [9]: 104%; viability, T/C [10]: 71.2%; viability, T/C (second compound 3.16 µM, first compound 0.000316 µM): 114%; viability, T/C (second compound 3.16 µM, first compound 0.001 µM): 103%; viability, T/C [13]: 90.9%; viability, T/C [14]: 71.8%; viability, T/C (second compound 10 µM, first compound 0.000316 µM): 87.6%; viability, T/C (second compound 10 µM, first compound 0.001 µM): 81.9%; viability, T/C [17]: 100%; viability, T/C [18]: 67.3%"
COc1cc(C2c3cc4c(cc3C(OC3OC5COC(C)OC5C(O)C3O)C3COC(=O)C23)OCO4)cc(OC)c1O (stereo not given) + CC(CO)NC(=O)c1cc(-c2ccc(Cl)cc2)nn(-c2cnn(C)c2)c1=O,1710,921,1170,764,611,96.8,102,89.5,93.4,95.9,96.4,74.6,82.4,70.8,72.9,75.9,60.8,78.1,48.4,78.1,"viability, T/C [23]: 39.8%; viability, T/C [24]: 33.5%; viability, T/C [27]: 30%; viability, T/C [28]: 28.5%; viability, T/C [30]: 52.7%; viability, T/C [31]: 36%; viability, T/C [32]: 30.8%; viability, T/C [33]: 80.4%; viability, T/C [34]: 41.2%; viability, T/C [35]: 33.4%; viability, T/C [36]: 29.6%; viability, T/C [37]: 57.2%; viability, T/C [38]: 44.7%; viability, T/C [39]: 34.1%; viability, T/C [40]: 33.7%"
COc1cccc2c1C(=O)c1c(O)c3c(c(O)c1C2=O)CC(O)(C(=O)CO)CC3OC1CC(N)C(O)C(C)O1 (stereo not given) + CC(CO)NC(=O)c1cc(-c2ccc(Cl)cc2)nn(-c2cnn(C)c2)c1=O,78,83.2,71.2,67.7,52.4,60.8,45.7,62,46.9,64.4,43,58.1,44.5,52.8,46.4,26.5,8.5,22.6,5.23,22.3,"viability, T/C [23]: 2.41%; viability, T/C [24]: 9.56%; viability, T/C [27]: 3.01%; viability, T/C [28]: 8.52%; viability, T/C [30]: 5.55%; viability, T/C [31]: 2.67%; viability, T/C [32]: 9.64%; viability, T/C [33]: 24.4%; viability, T/C [34]: 4.46%; viability, T/C [35]: 3.77%; viability, T/C [36]: 8.98%; viability, T/C [37]: 17.9%; viability, T/C [38]: 2.07%; viability, T/C [39]: 3.16%; viability, T/C [40]: 10.2%"
Nc1ncn(C2CC(O)C(CO)O2)c(=O)n1 (stereo not given) + CC(CO)NC(=O)c1cc(-c2ccc(Cl)cc2)nn(-c2cnn(C)c2)c1=O,> 1000,> 1000,> 1000,> 1000,> 1000,109,65.8,109,76.2,112,95.8,81.3,67.9,79.3,67.1,87.7,67.5,69.9,63.8,75.4,"viability, T/C [1]: 110%; viability, T/C [2]: 116%; viability, T/C [5]: 105%; viability, T/C [6]: 111%; viability, T/C [9]: 98.2%; viability, T/C [10]: 93.4%; viability, T/C [30]: 62.8%; viability, T/C [13]: 74.3%; viability, T/C [14]: 102%; viability, T/C [33]: 59.2%; viability, T/C [34]: 57.3%; viability, T/C [17]: 80.4%; viability, T/C [18]: 83.1%; viability, T/C [37]: 58.2%; viability, T/C [38]: 63.2%"
